Source: the supplement of paper PMC10307832

What was measured:
Test in all cases: relative viability (nuclei count vs DMSO), 5 days (fraction); higher = more cells survive
A-427 = tested on: A-427
Method in brief: (§1)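 Five library-drug doses in √10 steps were combined with a fixed anchor-drug dose, or a single drug was given alone, by pin tool to lung cancer cell lines in 1536-well plates the day after seeding. Nuclei were stained and counted after 5 days. Relative viability is the nuclei count in treated wells over that in vehicle wells, taken as the median of duplicate plates.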

COR-L 105 = tested on: COR-L 105
Method in brief: as §1

H3255 = tested on: H3255
Method in brief: as §1

HCC-44 = tested on: HCC-44
Method in brief: as §1

HCC-827 = tested on: HCC-827
Method in brief: as §1

LCLC-103H = tested on: LCLC-103H
Method in brief: as §1

LOU-NH91 = tested on: LOU-NH91
Method in brief: as §1

LXF-289 = tested on: LXF-289
Method in brief: as §1

NCI-H1792 = tested on: NCI-H1792
Method in brief: as §1

NCI-H1793 = tested on: NCI-H1793
Method in brief: as §1

NCI-H1915 = tested on: NCI-H1915
Method in brief: as §1

NCI-H1944 = tested on: NCI-H1944
Method in brief: as §1

NCI-H1975 = tested on: NCI-H1975
Method in brief: as §1

NCI-H1993 = tested on: NCI-H1993
Method in brief: as §1

NCI-H2023 = tested on: NCI-H2023
Method in brief: as §1

NCI-H2087 = tested on: NCI-H2087
Method in brief: as §1

NCI-H358 = tested on: NCI-H358
Method in brief: as §1

NCI-H520 = tested on: NCI-H520
Method in brief: as §1

SK-MES-1 = tested on: SK-MES-1
Method in brief: as §1

SW 1573 = tested on: SW 1573
Method in brief: as §1

SMILES: CN1CCN(CCOc2cc(OC3CCOCC3)c3c(Nc4c(Cl)ccc5c4OCO5)ncnc3c2)CC1 [Saracatinib] + C[C@]1(O)C[C@@H](c2nc(-c3ccc4ccc(-c5ccccc5)nc4c3)c3c(N)nccn32)C1 [Linsitinib] (partner 1 µM)
- relative viability (A-427; first compound 0.02 µM): 1.03
- relative viability (A-427; first compound 0.2 µM): 1.08
- relative viability (A-427; first compound 0.6325 µM): 1.12
- relative viability (A-427; first compound 2 µM): 1.11
- relative viability (COR-L 105; first compound 0.02 µM): 0.872
- relative viability (COR-L 105; first compound 0.2 µM): 1.02
- relative viability (COR-L 105; first compound 0.6325 µM): 0.63
- relative viability (COR-L 105; first compound 2 µM): 0.58
- relative viability (H3255; first compound 0.02 µM): 0.994
- relative viability (H3255; first compound 0.2 µM): 0.986
- relative viability (H3255; first compound 0.6325 µM): 0.647
- relative viability (H3255; first compound 2 µM): 0.233
- relative viability (HCC-44; first compound 0.02 µM): 0.729
- relative viability (HCC-44; first compound 0.2 µM): 0.51
- relative viability (HCC-44; first compound 0.6325 µM): 0.823
- relative viability (HCC-44; first compound 2 µM): 0.717
- relative viability (HCC-827; first compound 0.02 µM): 0.981
- relative viability (HCC-827; first compound 0.2 µM): 0.739
- relative viability (HCC-827; first compound 0.6325 µM): 0.338
- relative viability (HCC-827; first compound 2 µM): 0.158
- relative viability (LCLC-103H; first compound 0.02 µM): 1.18
- relative viability (LCLC-103H; first compound 0.2 µM): 0.873
- relative viability (LCLC-103H; first compound 0.6325 µM): 1.04
- relative viability (LCLC-103H; first compound 2 µM): 1.04
- relative viability (LOU-NH91; first compound 0.02 µM): 0.901
- relative viability (LOU-NH91; first compound 0.2 µM): 0.603
- relative viability (LOU-NH91; first compound 0.6325 µM): 0.594
- relative viability (LOU-NH91; first compound 2 µM): 0.518
- relative viability (LXF-289; first compound 0.02 µM): 0.979
- relative viability (LXF-289; first compound 0.2 µM): 0.92
- relative viability (LXF-289; first compound 0.6325 µM): 0.968
- relative viability (LXF-289; first compound 2 µM): 0.963
- relative viability (NCI-H1792; first compound 0.02 µM): 0.533
- relative viability (NCI-H1792; first compound 0.2 µM): 0.374
- relative viability (NCI-H1792; first compound 0.6325 µM): 0.647
- relative viability (NCI-H1792; first compound 2 µM): 0.384
- relative viability (NCI-H1793; first compound 0.02 µM): 0.876
- relative viability (NCI-H1793; first compound 0.2 µM): 0.447
- relative viability (NCI-H1793; first compound 0.6325 µM): 0.993
- relative viability (NCI-H1793; first compound 2 µM): 0.783
- relative viability (NCI-H1915; first compound 0.02 µM): 1.1
- relative viability (NCI-H1915; first compound 0.2 µM): 1.03
- relative viability (NCI-H1915; first compound 0.6325 µM): 1.07
- relative viability (NCI-H1915; first compound 2 µM): 1.07
- relative viability (NCI-H1944; first compound 0.02 µM): 1.21
- relative viability (NCI-H1944; first compound 0.6325 µM): 0.971
- relative viability (NCI-H1944; first compound 2 µM): 0.704
- relative viability (NCI-H1975; first compound 0.02 µM): 0.953
- relative viability (NCI-H1975; first compound 0.6325 µM): 0.95
- relative viability (NCI-H1975; first compound 2 µM): 0.478
- relative viability (NCI-H1993; first compound 0.02 µM): 0.682
- relative viability (NCI-H1993; first compound 0.2 µM): 0.715
- relative viability (NCI-H1993; first compound 2 µM): 0.621
- relative viability (NCI-H2023; first compound 0.02 µM): 0.771
- relative viability (NCI-H2023; first compound 0.2 µM): 0.588
- relative viability (NCI-H2023; first compound 0.6325 µM): 0.542
- relative viability (NCI-H2023; first compound 2 µM): 0.366
- relative viability (NCI-H2087; first compound 0.02 µM): 1.11
- relative viability (NCI-H2087; first compound 0.2 µM): 0.947
- relative viability (NCI-H2087; first compound 0.6325 µM): 1.2
- relative viability (NCI-H2087; first compound 2 µM): 1.12
- relative viability (NCI-H358; first compound 0.02 µM): 0.813
- relative viability (NCI-H358; first compound 0.2 µM): 0.51
- relative viability (NCI-H358; first compound 0.6325 µM): 0.403
- relative viability (NCI-H358; first compound 2 µM): 0.279
- relative viability (NCI-H520; first compound 0.02 µM): 0.911
- relative viability (NCI-H520; first compound 0.2 µM): 0.786
- relative viability (NCI-H520; first compound 0.6325 µM): 0.825
- relative viability (NCI-H520; first compound 2 µM): 0.504
- relative viability (SK-MES-1; first compound 0.02 µM): 0.934
- relative viability (SK-MES-1; first compound 0.2 µM): 0.903
- relative viability (SK-MES-1; first compound 0.6325 µM): 0.87
- relative viability (SK-MES-1; first compound 2 µM): 0.471
- relative viability (SW 1573; first compound 0.02 µM): 0.846
- relative viability (SW 1573; first compound 0.2 µM): 0.673
- relative viability (SW 1573; first compound 0.6325 µM): 0.699
- relative viability (SW 1573; first compound 2 µM): 0.64
